Tests used:
Format in all cases: functional
[1] = test system: Poaceae; experiment: Pre-emergence herbicidal activity against Poaceae (grass family) in tomato field assessed as number of weeds at 4.56 kg/ha applied through drip lines/backpack-spray on week 3 to 4 before transplanting measured 7 weeks after treatment (reference value: 6 plants/m2)
[2] = test system: Poaceae; experiment: Pre-emergence herbicidal activity against Poaceae (grass family) in tomato field assessed as number of weeds at 4.56 kg/ha applied through drip lines/backpack-spray on week 3 to 4 before transplanting measured 12 weeks after treatment (reference value: 8 plants/m2)
[3] = test system: Corynandra viscosa; experiment: Pre-emergence herbicidal activity against Cleome viscosa in tomato field assessed as number of weeds at 4.56 kg/ha applied through drip lines/backpack-spray on week 3 to 4 before transplanting measured 12 weeks after treatment (reference value: 9 plants/m2)
[4] = test system: Digitaria; experiment: Pre-emergence herbicidal activity against Digitaria spp. in tomato field assessed as number of weeds at 4.56 kg/ha applied through drip lines/backpack-spray on week 3 to 4 before transplanting measured 12 weeks after treatment (reference value: 9 plants/m2)
[5] = test system: Cyperus; experiment: Pre-emergence herbicidal activity against Cyperus in tomato field assessed as number of weeds at 4.56 kg/ha applied through drip lines/backpack-spray on week 3 to 4 before transplanting measured 7 weeks after treatment (reference value: 3 plants/m2)
[6] = test system: Eleusine indica; experiment: Pre-emergence herbicidal activity against Eleusine indica in tomato field assessed as extra-large fruit weight at 4.56 kg/ha applied through drip lines/backpack-spray on week 3 to 4 before transplanting (reference value: 7.3 t/ha); details: pooled result: one value given for 8 cell lines, strains, targets or settings
[7] = test system: Eleusine indica; experiment: Pre-emergence herbicidal activity against Eleusine indica in tomato field assessed as total number of fruits at 4.56 kg/ha applied through drip lines/backpack-spray on week 3 to 4 before transplanting (reference value: 49.5 x 10 '3 ha); details: pooled result: one value given for 8 cell lines, strains, targets or settings
[8] = test system: Echinochloa colona; experiment: Pre-emergence herbicidal activity against Echinochloa colona in tomato field assessed as number of weeds at 4.56 kg/ha applied through drip lines/backpack-spray on week 3 to 4 before transplanting measured 12 weeks after treatment (reference value: 9 plants/m2)
[9] = test system: Cyperus; experiment: Pre-emergence herbicidal activity against Cyperus in tomato field assessed as number of weeds at 4.56 kg/ha applied through drip lines/backpack-spray on week 3 to 4 before transplanting measured 12 weeks after treatment (reference value: 5 plants/m2)
[10] = test system: Trianthema; experiment: Pre-emergence herbicidal activity against Trianthema spp. in tomato field assessed as number of weeds at 4.56 kg/ha applied through drip lines/backpack-spray on week 3 to 4 before transplanting measured 12 weeks after treatment (reference value: 9 plants/m2)
[11] = test system: Portulaca oleracea; experiment: Pre-emergence herbicidal activity against Portulaca oleracea in tomato field assessed as number of weeds at 4.56 kg/ha applied through drip lines/backpack-spray on week 3 to 4 before transplanting measured 12 weeks after treatment (reference value: 9 plants/m2)
[12] = test system: Amaranthus dubius; experiment: Pre-emergence herbicidal activity against Amaranthus dubius in tomato field assessed as number of weeds at 4.56 kg/ha applied through drip lines/backpack-spray on week 3 to 4 before transplanting measured 12 weeks after treatment (reference value: 9 plants/m2)
[13] = test system: Portulaca oleracea; experiment: Pre-emergence herbicidal activity against Portulaca oleracea in tomato field assessed as number of weeds at 4.56 kg/ha applied through drip lines/backpack-spray on week 3 to 4 before transplanting measured 7 weeks after treatment (reference value: 9 plants/m2); details: pooled result: one value given for 8 cell lines, strains, targets or settings
[14] = test system: Boerhavia erecta; experiment: Pre-emergence herbicidal activity against Boerhavia erecta in tomato field assessed as number of weeds at 4.56 kg/ha applied through drip lines/backpack-spray on week 3 to 4 before transplanting measured 12 weeks after treatment (reference value: 9 plants/m2)
[15] = test system: Eleusine indica; experiment: Pre-emergence herbicidal activity against Eleusine indica in tomato field assessed as total fruit weight at 4.56 kg/ha applied through drip lines/backpack-spray on week 3 to 4 before transplanting (reference value: 13.7 t/ha); details: pooled result: one value given for 8 cell lines, strains, targets or settings
[16] = test system: Boerhavia erecta; experiment: Pre-emergence herbicidal activity against Boerhavia erecta in tomato field assessed as number of extra-large fruits at 4.56 kg/ha applied through drip lines/backpack-spray on week 3 to 4 before transplanting (reference value: 21.3 x 10 '3 ha); details: pooled result: one value given for 8 cell lines, strains, targets or settings
[17] = test system: Eleusine indica; experiment: Pre-emergence herbicidal activity against Eleusine indica in tomato field assessed as number of weeds at 4.56 kg/ha applied through drip lines/backpack-spray on week 3 to 4 before transplanting measured 12 weeks after treatment (reference value: 9 plants/m2)
[18] = test system: Poaceae; experiment: Pre-emergence herbicidal activity against Poaceae (grass family) in tomato field assessed as number of weeds at 0.80 kg/ha applied through drip lines/backpack-spray on week 3 to 4 before transplanting measured 7 weeks after treatment (reference value: 6 plants/m2)
[19] = test system: Digitaria; experiment: Pre-emergence herbicidal activity against Digitaria spp. in tomato field assessed as number of weeds at 0.80 kg/ha applied through drip lines/backpack-spray on week 3 to 4 before transplanting measured 7 weeks after treatment (reference value: 9 plants/m2)
[20] = test system: Amaranthus dubius; experiment: Pre-emergence herbicidal activity against Amaranthus dubius in tomato field assessed as number of weeds at 0.80 kg/ha applied through drip lines/backpack-spray on week 3 to 4 before transplanting measured 7 weeks after treatment (reference value: 9 plants/m2)
[21] = test system: Amaranthus dubius; experiment: Pre-emergence herbicidal activity against Amaranthus dubius in tomato field assessed as number of weeds at 0.80 kg/ha applied through drip lines/backpack-spray on week 3 to 4 before transplanting measured 12 weeks after treatment (reference value: 9 plants/m2)
[22] = test system: Digitaria; experiment: Pre-emergence herbicidal activity against Digitaria spp. in tomato field assessed as extra-large fruit weight at 0.80 kg/ha applied through drip lines/backpack-spray on week 3 to 4 before transplanting (reference value: 7.3 t/ha)
[23] = test system: Portulaca oleracea; experiment: Pre-emergence herbicidal activity against Portulaca oleracea in tomato field assessed as number of weeds at 0.80 kg/ha applied through drip lines/backpack-spray on week 3 to 4 before transplanting measured 12 weeks after treatment (reference value: 9 plants/m2)
[24] = test system: Trianthema; experiment: Pre-emergence herbicidal activity against Trianthema spp. in tomato field assessed as extra-large fruit weight at 0.80 kg/ha applied through drip lines/backpack-spray on week 3 to 4 before transplanting (reference value: 7.3 t/ha)
[25] = test system: Corynandra viscosa; experiment: Pre-emergence herbicidal activity against Cleome viscosa in tomato field assessed as number of weeds at 0.80 kg/ha applied through drip lines/backpack-spray on week 3 to 4 before transplanting measured 7 weeks after treatment (reference value: 9 plants/m2)
[26] = test system: Boerhavia erecta; experiment: Pre-emergence herbicidal activity against Boerhavia erecta in tomato field assessed as extra-large fruit weight at 0.80 kg/ha applied through drip lines/backpack-spray on week 3 to 4 before transplanting (reference value: 7.3 t/ha)
[27] = test system: Eleusine indica; experiment: Pre-emergence herbicidal activity against Eleusine indica in tomato field assessed as extra-large fruit weight at 0.80 kg/ha applied through drip lines/backpack-spray on week 3 to 4 before transplanting (reference value: 7.3 t/ha)
[28] = test system: Digitaria; experiment: Pre-emergence herbicidal activity against Digitaria spp. in tomato field assessed as number of weeds at 0.80 kg/ha applied through drip lines/backpack-spray on week 3 to 4 before transplanting measured 12 weeks after treatment (reference value: 9 plants/m2)
[29] = test system: Eleusine indica; experiment: Pre-emergence herbicidal activity against Eleusine indica in tomato field assessed as number of weeds at 0.80 kg/ha applied through drip lines/backpack-spray on week 3 to 4 before transplanting measured 7 weeks after treatment (reference value: 9 plants/m2)
[30] = test system: Eleusine indica; experiment: Pre-emergence herbicidal activity against Eleusine indica in tomato field assessed as number of extra-large fruits at 0.80 kg/ha applied through drip lines/backpack-spray on week 3 to 4 before transplanting (reference value: 21.3 x 10 '3 ha); details: pooled result: one value given for 8 cell lines, strains, targets or settings
[31] = test system: Portulaca oleracea; experiment: Pre-emergence herbicidal activity against Portulaca oleracea in tomato field assessed as extra-large fruit weight at 0.80 kg/ha applied through drip lines/backpack-spray on week 3 to 4 before transplanting (reference value: 7.3 t/ha)
[32] = test system: Corynandra viscosa; experiment: Pre-emergence herbicidal activity against Cleome viscosa in tomato field assessed as extra-large fruit weight at 0.80 kg/ha applied through drip lines/backpack-spray on week 3 to 4 before transplanting (reference value: 7.3 t/ha)
[33] = test system: Trianthema; experiment: Pre-emergence herbicidal activity against Trianthema spp. in tomato field assessed as number of weeds at 0.80 kg/ha applied through drip lines/backpack-spray on week 3 to 4 before transplanting measured 7 weeks after treatment (reference value: 9 plants/m2)
[34] = test system: Echinochloa colona; experiment: Pre-emergence herbicidal activity against Echinochloa colona in tomato field assessed as extra-large fruit weight at 0.80 kg/ha applied through drip lines/backpack-spray on week 3 to 4 before transplanting (reference value: 7.3 t/ha)
[35] = test system: Trianthema; experiment: Pre-emergence herbicidal activity against Trianthema spp. in tomato field assessed as number of weeds at 0.80 kg/ha applied through drip lines/backpack-spray on week 3 to 4 before transplanting measured 12 weeks after treatment (reference value: 9 plants/m2)
[36] = test system: Eleusine indica; experiment: Pre-emergence herbicidal activity against Eleusine indica in tomato field assessed as total fruit weight at 0.80 kg/ha applied through drip lines/backpack-spray on week 3 to 4 before transplanting (reference value: 13.7 t/ha); details: pooled result: one value given for 8 cell lines, strains, targets or settings
[37] = test system: Echinochloa colona; experiment: Pre-emergence herbicidal activity against Echinochloa colona in tomato field assessed as number of weeds at 0.80 kg/ha applied through drip lines/backpack-spray on week 3 to 4 before transplanting measured 7 weeks after treatment (reference value: 9 plants/m2)
[38] = test system: Cyperus; experiment: Pre-emergence herbicidal activity against Cyperus in tomato field assessed as number of weeds at 0.80 kg/ha applied through drip lines/backpack-spray on week 3 to 4 before transplanting measured 12 weeks after treatment (reference value: 5 plants/m2)
[39] = test system: Boerhavia erecta; experiment: Pre-emergence herbicidal activity against Boerhavia erecta in tomato field assessed as number of weeds at 0.80 kg/ha applied through drip lines/backpack-spray on week 3 to 4 before transplanting measured 7 weeks after treatment (reference value: 9 plants/m2)
[40] = test system: Cyperus; experiment: Pre-emergence herbicidal activity against Cyperus in tomato field assessed as number of weeds at 0.80 kg/ha applied through drip lines/backpack-spray on week 3 to 4 before transplanting measured 7 weeks after treatment (reference value: 3 plants/m2)
[41] = test system: Portulaca oleracea; experiment: Pre-emergence herbicidal activity against Portulaca oleracea in tomato field assessed as number of weeds at 0.80 kg/ha applied through drip lines/backpack-spray on week 3 to 4 before transplanting measured 7 weeks after treatment (reference value: 9 plants/m2)
[42] = test system: Boerhavia erecta; experiment: Pre-emergence herbicidal activity against Boerhavia erecta in tomato field assessed as number of weeds at 0.80 kg/ha applied through drip lines/backpack-spray on week 3 to 4 before transplanting measured 12 weeks after treatment (reference value: 9 plants/m2)
[43] = test system: Echinochloa colona; experiment: Pre-emergence herbicidal activity against Echinochloa colona in tomato field assessed as number of weeds at 0.80 kg/ha applied through drip lines/backpack-spray on week 3 to 4 before transplanting measured 12 weeks after treatment (reference value: 9 plants/m2)
[44] = test system: Eleusine indica; experiment: Pre-emergence herbicidal activity against Eleusine indica in tomato field assessed as number of weeds at 0.80 kg/ha applied through drip lines/backpack-spray on week 3 to 4 before transplanting measured 12 weeks after treatment (reference value: 9 plants/m2)
[45] = test system: Corynandra viscosa; experiment: Pre-emergence herbicidal activity against Cleome viscosa in tomato field assessed as number of weeds at 0.80 kg/ha applied through drip lines/backpack-spray on week 3 to 4 before transplanting measured 12 weeks after treatment (reference value: 9 plants/m2)
[46] = test system: Amaranthus dubius; experiment: Pre-emergence herbicidal activity against Amaranthus dubius in tomato field assessed as extra-large fruit weight at 0.80 kg/ha applied through drip lines/backpack-spray on week 3 to 4 before transplanting (reference value: 7.3 t/ha)
[47] = test system: Eleusine indica; experiment: Pre-emergence herbicidal activity against Eleusine indica in tomato field assessed as total number of fruits at 0.80 kg/ha applied through drip lines/backpack-spray on week 3 to 4 before transplanting (reference value: 49.5 x 10 '3 ha); details: pooled result: one value given for 8 cell lines, strains, targets or settings
[48] = test system: Poaceae; experiment: Pre-emergence herbicidal activity against Poaceae (grass family) in tomato field assessed as number of weeds at 0.80 kg/ha applied through drip lines/backpack-spray on week 3 to 4 before transplanting measured 12 weeks after treatment (reference value: 8 plants/m2)

CCCCN(CC)C(=O)SCCC [PEBULATE]
Activity [1]: 4 /m2
Activity [2]: 5 /m2
Activity [3]: 8 /m2
Activity [4]: 8 /m2
Activity [5]: 4 /m2
Activity [6]: 8.4 tons/ha
fruit number [7]: 55 10^3 fruits/ha
Activity [8]: 8 /m2
Activity [9]: 6 /m2
Activity [10]: 8 /m2
Activity [11]: 8 /m2
Activity [12]: 8 /m2
Activity [13]: 14 /m2
Activity [14]: 8 /m2
Activity [15]: 15.3 tons/ha
fruit count [16]: 24.5 10³ fruits/ha
Activity [17]: 8 /m2

CCCN(CCC)c1c([N+](=O)[O-])cc(C(F)(F)F)cc1[N+](=O)[O-] [TRIFLURALIN]
Activity [18]: 6 /m2
Activity [19]: 10 /m2
Activity [20]: 10 /m2
Activity [21]: 7 /m2
Activity [22]: 9.6 tons/ha
Activity [23]: 7 /m2
Activity [24]: 9.6 tons/ha
Activity [25]: 10 /m2
Activity [26]: 9.6 tons/ha
Activity [27]: 9.6 tons/ha
Activity [28]: 7 /m2
Activity [29]: 10 /m2
fruit count [30]: 29.5 10^3 fruits/ha
Activity [31]: 9.6 tons/ha
Activity [32]: 9.6 tons/ha
Activity [33]: 10 /m2
Activity [34]: 9.6 tons/ha
Activity [35]: 7 /m2
Activity [36]: 15.9 tons/ha
Activity [37]: 10 /m2
Activity [38]: 8 /m2
Activity [39]: 10 /m2
Activity [40]: 5 /m2
Activity [41]: 10 /m2
Activity [42]: 7 /m2
Activity [43]: 7 /m2
Activity [44]: 7 /m2
Activity [45]: 7 /m2
Activity [46]: 9.6 tons/ha
fruit number [47]: 59.5 10^3 fruits/ha
Activity [48]: 5 /m2
